Results on eight compounds are retold here after EP0737691A1, “Bombesin analogs” (BIOMEASURE, INC., priority 1995, dated 1996).

What is called pIC50 is the negative decadic logarithm of the IC50, by convention in mol/L.

One test has as its target T1, GRP receptor (Rattus norvegicus, UniProt P52500).
T1 construct: endogenous in cells; host or cells: Rat AR42J pancreatic acinar cells (membranes)
The test is described as follows: GRP Receptor Binding Assay ([125I-Tyr4] bombesin displacement, AR42J cell membranes). The protocol: Rat AR42J pancreatic acinar cells were cultured in Dulbecco's modified Eagle's medium without antibiotics and supplemented with 10% (vol/vol) fetal calf serum. The incubation atmosphere consisted of 10% CO2-90% humidified air at 37°C.
Membranes for the bombesin receptor binding assay were obtained by homogenizing AR42J cells (Polytron, setting 6, 15 sec)(Brinkman, Westbury, NY) in ice-cold 50 mM Tris-HCl (Buffer A) and centrifuging twice at 39,000 x g (10 min), with an intermediate resuspension in fresh Buffer A. The final pellets were resuspended in 50 mM Tris-HCl, containing 0.1 mg/ml bacitracin, and 0.1% BSA (Buffer B), and held on ice for the receptor binding assay.

The next test concerns the target T2, rat NMB receptor (Rattus norvegicus, UniProt P24053).
T2 construct: expressed in transfected cells; host or cells: BALB-3T3 (mouse) fibroblasts
T2 sequence (P24053 1-390): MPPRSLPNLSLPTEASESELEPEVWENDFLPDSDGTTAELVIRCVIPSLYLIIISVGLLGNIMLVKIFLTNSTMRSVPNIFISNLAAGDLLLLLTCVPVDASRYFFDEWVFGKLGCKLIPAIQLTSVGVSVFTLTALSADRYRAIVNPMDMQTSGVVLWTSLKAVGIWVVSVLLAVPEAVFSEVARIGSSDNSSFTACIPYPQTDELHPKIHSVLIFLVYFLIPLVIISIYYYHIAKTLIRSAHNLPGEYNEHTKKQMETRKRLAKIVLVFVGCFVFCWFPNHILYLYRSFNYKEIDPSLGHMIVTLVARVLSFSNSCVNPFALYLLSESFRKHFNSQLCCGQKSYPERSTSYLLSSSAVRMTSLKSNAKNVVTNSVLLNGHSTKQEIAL
The test is described as follows: NMB Receptor Binding Assay (membranes of BALB-3T3 fibroblasts transfected with the rat NMB receptor). The following applies: for pIC50: affinity for the NMB receptor, BALB-3T3 fibroblasts transfected with the rat NMB receptor, 30 min, 4°C. The protocol:
The procedure for transfecting the rat NMB receptor into BALB-3T3 fibroblasts is discussed in Wada, et al., Neuron, […] (1991) and Benya, et al., Mol. Pharmacol., 42:1058 (1992).
Membranes for the bombesin receptor binding assay were obtained by homogenizing […] fibroblasts, transfected with the rat NMB receptor (Polytron, setting 6, 15 sec) in ice-cold 50 mM Tris-HCl (Buffer A) and centrifuging twice at 39,000 x g (10 min), with an intermediate resuspension in fresh Buffer A. The final pellets were resuspended in 50 mM Tris-HCl, containing 0.1 mg/ml bacitracin, and 0.1% BSA (Buffer B), and held on ice for the receptor binding assay.
For assay, aliquots (0.4 ml) were incubated with 0.05 ml [^125 I-Tyr^4] bombesin (∼2200 Ci/mmol, New England Nuclear) and Buffer B, with and without 0.05 ml of unlabeled competing analogs. After a 30 min incubation (4°C), the bound [^125 I-Tyr^4] bombesin was separated from the free by rapid filtration through Whatman™ GF/B filters which had been previously soaked in 0.3% polyethyleneimine using a Brandel filtration manifold. The filters were then washed three times with 5 ml aliquots of ice-cold Buffer A. Specific binding was defined as the total [^125 I-Tyr^4] […] bound minus that bound in the presence of 1 µM unlabeled neuromedin-B.
Replacement of Gly at position A^6 in a prior art compound (i.e., litorin, leu-litorin, and [D-Phe^1, Leu^8,9] litorin) with β-Ala led unexpectedly to a great increase in their affinity for the NMB receptor. […] Modifications at position A^1, A^8, or A^9 further increases the affinity. […]

The subject of the next test is R-3327/H prostate tumor. Put plainly: Assay on in vivo prostate tumor growth. The arrangement: species or system Copenhagen male rats. To be noted: 200 mg/inj. s.c., B.I.D., 24 days; castrated rats with tumors escaped from castration inhibition; versus vehicle; after day 17; Fig. 1. The text has this: The androgen responsive R-3327/H prostate tumor line was implanted into 38 testes-intact, syngeneic Copenhagen male rats. The tumored animals were individually staged for castration when their tumors reached a size approximating 235 mgs. Tumors were then staged for bombesin analogue treatment when two sequential tumor measurements indicated an "escape from castration inhibition" condition, as evidenced by an increase in tumor growth rate. This transition of the prostate tumor tissue from androgen sensitive to androgen insensitive occurred without surgical perturbation of the tumor, thus providing a clinically realistic model for evaluating the anti-prostate tumor activity of the bombesin analogues.
The tumored animals were separated into two groups of 19 animals. Treatment was only initiated when tumors reached the "escape from castration inhibition" condition. Group 1 received 0.2 ml/inj. of 2.6% glycerol/water vehicle, (s.c., B.I.D.). Group 2 received a […]. of Analog #5 (s.c., B.I.D.). […] Tumors were measured using Vernier calipers and the volume was calculated using the following formula: (0.5)(length)(width)^2
Fig. 1 illustrates the tumor growth inhibitory effect of the treatments in Group 1 and Group 2. Relative tumor volume was calculated by the following formula: (Tumor Volume (measuring day))/(Tumor Volume (staging day))x 100 [formula] […]

Where [1] appears, read: affinity for the GRP receptor, [125I-Tyr4] bombesin, rat AR42J pancreatic acinar cell membranes, 30 min, 4°C, read-out: IC50.

pIC50: −log10 of the molar value. Where two headings read alike, the source gives them in different places. Square brackets hold non-standard residues; d marks the D form. Peptide text beside a SMILES is read from it. Nle = CCCC[C@H](N)C(=O)O; βAla = NCCC(=O)O A value given as a limit tells only on which side of the number the result lay.

T1 sequence (P52500 whole entry): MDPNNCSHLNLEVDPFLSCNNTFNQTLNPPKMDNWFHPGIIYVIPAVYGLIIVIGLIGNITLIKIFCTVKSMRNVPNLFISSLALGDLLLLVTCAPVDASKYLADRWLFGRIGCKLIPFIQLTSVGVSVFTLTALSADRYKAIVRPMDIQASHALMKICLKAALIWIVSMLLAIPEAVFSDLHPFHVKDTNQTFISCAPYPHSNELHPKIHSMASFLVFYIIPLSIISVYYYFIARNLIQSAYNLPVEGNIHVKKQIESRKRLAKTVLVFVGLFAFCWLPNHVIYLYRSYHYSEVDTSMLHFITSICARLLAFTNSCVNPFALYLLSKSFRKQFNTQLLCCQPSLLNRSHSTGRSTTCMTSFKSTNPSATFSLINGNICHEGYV

Consider `CSCC[C@H](NC(=O)[C@H](Cc1ccccc1)NC(=O)[C@H](Cc1c[nH]cn1)NC(=O)CNC(=O)[C@@H](NC(=O)[C@H](C)NC(=O)[C@H](Cc1c[nH]c2ccccc12)NC(=O)[C@H](CCC(N)=O)NC(=O)[C@@H]1CCC(=O)N1)C(C)C)C(N)=O` [Litorin, p-Glu-Gln-Trp-Ala-Val-Gly-His-Phe-Met-NH2, reference compound], for which the figures for the negative logarithm of the IC50 (pIC50) at GRP receptor and at rat NMB receptor were 8.62 and 8.78, respectively.

Regarding `CCCC[C@H](NC(=O)[C@H](Cc1ccccc1)NC(=O)[C@H](Cc1c[nH]cn1)NC(=O)CCNC(=O)[C@@H](NC(=O)[C@H](C)NC(=O)[C@H](Cc1c[nH]c2ccccc12)NC(=O)[C@H](CCC(N)=O)NC(=O)[C@H](N)Cc1c[nH]c2ccccc12)C(C)C)C(N)=O` [Analog #4, H-D-Trp-Gln-Trp-Ala-Val-β-Ala-His-Phe-Nle-NH2] (H-[dW]QWAV[βAla]HF[Nle]-NH2), the results for the pIC50 on GRP receptor (setting [1]) and on rat NMB receptor were 10.00 and 10.40, respectively.

As to `CC(C)C[C@H](NC(=O)[C@H](CC(C)C)NC(=O)[C@H](Cc1c[nH]cn1)NC(=O)CNC(=O)[C@@H](NC(=O)[C@H](C)NC(=O)[C@H](Cc1c[nH]c2ccccc12)NC(=O)[C@H](CCC(N)=O)NC(=O)[C@H](N)Cc1ccccc1)C(C)C)C(N)=O` [[D-Phe^1, Leu^8,9] litorin, H-D-Phe-Gln-Trp-Ala-Val-Gly-His-Leu-Leu-NH2, reference compound], the pIC50 at GRP receptor was 8.55; at rat NMB receptor, 6.32.

Take `CCCC[C@H](NC(=O)[C@H](Cc1ccccc1)NC(=O)[C@H](Cc1cnc[nH]1)NC(=O)CCNC(=O)[C@@H](NC(=O)[C@H](C)NC(=O)[C@H](Cc1c[nH]c2ccccc12)NC(=O)[C@H](CCC(N)=O)NC(=O)[C@H](N)Cc1ccc(O)cc1)C(C)C)C(N)=O` [Analog #3, H-D-Tyr-Gln-Trp-Ala-Val-β-Ala-His-Phe-Nle-NH2] (H-[dY]QWAV[βAla]HF[Nle]-NH2): on rat NMB receptor, the pIC50 is 9.00.

For `CCCC[C@H](NC(=O)[C@H](Cc1ccccc1)NC(=O)[C@H](Cc1c[nH]cn1)NC(=O)CCNC(=O)[C@@H](NC(=O)[C@H](C)NC(=O)[C@H](Cc1c[nH]c2ccccc12)NC(=O)[C@H](CCC(N)=O)NC(=O)[C@H](N)Cc1ccccc1)C(C)C)C(N)=O` [Analog #1, H-D-Phe-Gln-Trp-Ala-Val-β-Ala-His-Phe-Nle-NH2] (H-[dF]QWAV[βAla]HF[Nle]-NH2), the values for the negative logarithm of the IC50 (pIC50) at GRP receptor (setting [1]) and at rat NMB receptor were 9.70 and 9.00, respectively.

As to `CC(C)C[C@H](NC(=O)[C@H](CC(C)C)NC(=O)[C@H](Cc1c[nH]cn1)NC(=O)CCNC(=O)[C@@H](NC(=O)[C@H](C)NC(=O)[C@H](Cc1c[nH]c2ccccc12)NC(=O)[C@H](CCC(N)=O)NC(=O)[C@H](N)Cc1ccccc1)C(C)C)C(N)=O` [Analog #2, H-D-Phe-Gln-Trp-Ala-Val-β-Ala-His-Leu-Leu-NH2] (H-[dF]QWAV[βAla]HLL-NH2), the pIC50 at GRP receptor (setting [1]) is 9.00; on rat NMB receptor, 7.39. Besides, the “increase in the affinity for the NMB receptor” value at rat NMB receptor (fold increase compared with litorin or [D-Phe1, Leu8,9] litorin) turned out to be 11.7 time.

`CC(C)C[C@H](NC(=O)[C@H](CC(C)C)NC(=O)[C@H](Cc1c[nH]cn1)NC(=O)CNC(=O)[C@@H](NC(=O)[C@H](C)NC(=O)[C@H](Cc1c[nH]c2ccccc12)NC(=O)[C@H](CCC(N)=O)NC(=O)[C@@H]1CCC(=O)N1)C(C)C)C(N)=O` [Leu-Litorin, p-Glu-Gln-Trp-Ala-Val-Gly-His-Leu-Leu-NH2, reference compound]: the pIC50 on GRP receptor is 7.64; at rat NMB receptor, less than 5.00. In addition, the “binding affinity on the NMB receptor” value at rat NMB receptor (result in words) is listed as “almost no binding affinity”.

Take `CCCC[C@H](NC(=O)[C@H](CC(C)C)NC(=O)[C@H](Cc1c[nH]cn1)NC(=O)CCNC(=O)[C@@H](NC(=O)[C@H](C)NC(=O)[C@H](Cc1c[nH]c2ccccc12)NC(=O)[C@H](CCC(N)=O)NC(=O)[C@H](N)Cc1ccccc1)C(C)C)C(N)=O` [Analog #5, H-D-Phe-Gln-Trp-Ala-Val-β-Ala-His-Leu-Nle-NH2] (H-[dF]QWAV[βAla]HL[Nle]-NH2): the results for the pIC50 on GRP receptor (setting [1]) and on rat NMB receptor were 8.68 and 8.05, respectively. Further, in the test on R-3327/H prostate tumor, the “Rate of tumor growth” value was “significantly (p < 0.05) inhibited”.
